The source of these data is patent publication US20230113609A1, “SSTR5 ANTAGONISTS” (Kallyope, Inc., priority 2019, published 2023).

T1 sequence (P35346 whole entry): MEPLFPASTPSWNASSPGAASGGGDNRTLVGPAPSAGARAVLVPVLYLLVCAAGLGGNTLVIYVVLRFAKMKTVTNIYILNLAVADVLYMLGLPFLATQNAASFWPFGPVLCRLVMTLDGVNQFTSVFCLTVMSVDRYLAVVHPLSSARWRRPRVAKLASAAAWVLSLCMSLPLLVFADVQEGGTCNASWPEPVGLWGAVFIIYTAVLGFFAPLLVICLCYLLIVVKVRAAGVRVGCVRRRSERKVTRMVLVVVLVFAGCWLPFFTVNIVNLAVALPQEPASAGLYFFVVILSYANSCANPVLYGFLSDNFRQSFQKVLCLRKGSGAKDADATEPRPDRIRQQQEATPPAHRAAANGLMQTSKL

The first series addresses T1, human SSTR5 (Homo sapiens, UniProt P35346).
T1 construct: expressed in transfected cells
The series can be described thus: Inositol phosphate accumulation assay (IP1 HTRF, antagonist mode). Type of series: cell-based. The settings on record: CHO-K1 cells co-expressing human SSTR5 with Gqi5, SST28 agonist at concentration generating 90% of full activation. The method in brief: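 CHO-K1 cells stably co-expressing human SSTR5 and chimeric Gqi5 were pre-incubated with compound 15 minutes at 37° C, then stimulated with SST28 (30 nM as added, about EC90) for 90 minutes. IP1 read by HTRF (665/620 nm). % inhibition normalized to Max/Min controls; IC50 and maximal inhibition from 4-parameter fit.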
Background: TR-FRET usually uses a lanthanide donor and a delayed reading to cut background.
As usually defined, the IC50 is the concentration needed to halve the response being measured. Take `CCOc1cc(-c2ccc(F)cn2)c(C2CC2)cc1CN1CCC2(CC1)CN([C@H]1CC[C@](C)(C(=O)NCCOCCO)CC1)C(=O)O2` [compound 90]: the 50% inhibitory concentration (IC50) is not above 100 nM.

Turning to `CCOc1cc(C(=O)OC)c(C2CC2)cc1CN1CCC2(CC1)CC(=O)N(c1ccc(C(=O)NCCCCS(=O)(=O)O)cc1)C2` [Example 31, 4-(4-(8-(5-cyclopropyl-2-ethoxy-4-(methoxycarbonyl)benzyl)-3-oxo-2,8-diazaspiro[4.5]decan-2-yl)benzamido)butane-1-sulfonic acid], the IC50 is more than 5000 nM. `CCOc1cc(-c2ccc(F)cc2F)c(C2CC2)cc1CN1CCC2(CC1)CN(c1ccc(C(=O)NCCOCCO)cc1)C(=O)N2` [Example 72, 4-(8-((2-cyclopropyl-5-ethoxy-2′,4′-difluoro-[1,1′-biphenyl]-4-yl)methyl)-2-oxo-1,3,8-triazaspiro[4.5]decan-3-yl)-N-(2-(2-hydroxyethoxy)ethyl)benzamide]: the half-inhibitory concentration (IC50) was not above 100 nM. In turn, `CCOc1cc(-c2ccc(F)cc2)c(C2CC2)cc1CN1CCC2(CC1)CN(c1ccc(S(=O)(=O)NCCOCCO)cc1)C(=O)O2` [Example 81, 4-(8-((2-cyclopropyl-5-ethoxy-4′-fluoro-[1,1-biphenyl]-4-yl)methyl)-2-oxo-1-oxa-3,8-diazaspiro[4.5]decan-3-yl)-N-(2-(2-hydroxyethoxy)ethyl)benzenesulfonamide] gave an IC50 not above 100 nM. Same read-out and setting: with `CCOc1cc(C(=O)OC)c(C2CC2)cc1CN1CCC2(CC1)CC(=O)N(c1ccc(C(=O)NC[C@@H](O)CO)cc1)C2` [Example 36, methyl (R)-2-cyclopropyl-4-((2-(4-((2,3-dihydroxypropyl)carbamoyl)phenyl)-3-oxo-2,8-diazaspiro[4.5]decan-8-yl)methyl)-5-ethoxybenzoate] the figure was 100 to 1000 nM; with `CCOc1cc(C(=O)OC)c(C2CC2)cc1CN1CCC2(CC1)CC(=O)N(c1ccc(CCCC(=O)NC(C)(C)C(=O)NCCN(C)C)cc1)C2` [Example 17, methyl 2-cyclopropyl-4-((2-(4-(4-((1-((2-(dimethylamino)ethyl)amino)-2-methyl-1-oxopropan-2-yl)amino)-4-oxobutyl)phenyl)-3-oxo-2.8-diazaspiro[4.5]decan-8-yl)methyl)-5-ethoxybenzoate], 1000 to 5000 nM.

Take `CCOc1cc(C(=O)OC)c(C2CC2)cc1CN1CCC2(CC1)CC(=O)N(c1ccc(C(=O)NCCCS(=O)(=O)O)cc1)C2` [Example 30, 3-(4-(8-(5-cyclopropyl-2-ethoxy-4-(methoxycarbonyl)benzyl)-3-oxo-2,8-diazaspiro[4.5]decan-2-yl)benzamido)propane-1-sulfonic acid]: the concentration for half-maximal inhibition (IC50) is more than 5000 nM. Still for that read-out and setting: with `CCOc1cc(-c2ccc(F)cn2)c(C2CC2)cc1CN1CCC2(CC1)CN([C@H]1CC[C@@](C)(C(=O)NCCCS(=O)(=O)O)CC1)C(=O)O2` [compound 88] the figure was 100 to 1000 nM; with `CCOc1cc(C(=O)OC)c(C2CC2)cc1CN1CCC2(CC1)CN(c1ccc(C(=O)NCCCS(N)(=O)=O)cc1)C(=O)N2` [Example 79, methyl 2-cyclopropyl-5-ethoxy-4-((2-oxo-3-(4-((3-sulfamoylpropyl)carbamoyl)phenyl)-1,3,8-triazaspiro[4.5]decan-8-yl)methyl)benzoate], 100 to 1000 nM; with `CCOc1cc(C(=O)OC)c(C2CC2)cc1CN1CCC2(CC1)CN(c1ccc(C(=O)NCCOCCO)cc1)C(=O)O2` [Example 56, methyl 2-cyclopropyl-5-ethoxy-4-((3-(4-((2-(2-hydroxyethoxy)ethyl)carbamoyl)phenyl)-2-oxo-1-oxa-3,8-diazaspiro[4.5]decan-8-yl)methyl)benzoate], not above 100 nM.

On to `CCOc1cc(CN2CCC3(CC2)CN(c2ccc(C(=O)NCCS(=O)(=O)O)cc2)C(=O)O3)cc(OCC)c1-c1ccc(F)cc1` [Example 12, 2-(4-(8-((2,6-diethoxy-4′-fluoro-[1,1′-biphenyl]-4-yl)methyl)-2-oxo-1-oxa-3,8-diazaspiro[4.5]decan-3-yl)benzamido)ethane-1-sulfonic acid], for which the IC50 was more than 5000 nM. In turn, `CCOc1cc(-c2ccc(F)cn2)c(C2CC2)cc1CN1CCC2(CC1)CN(c1ccc(S(=O)(=O)NCCOCCO)cc1)C(=O)O2` [Example 82, 4-(8-(5-cyclopropyl-2-ethoxy-4-(5-fluoropyridin-2-yl)benzyl)-2-oxo-1-oxa-3,8-diazaspiro[4.5]decan-3-yl)-N-(2-(2-hydroxyethoxy)ethyl)benzenesulfonamide] came in with an IC50 not above 100 nM. On the same count and under the same terms, with `CCOc1cc(-c2ccc(F)cc2)c(C2CC2)cc1CN1CCC2(CC1)CN(c1ccc(S(=O)(=O)NCCOCCO)cc1)C(=O)N2` [compound 85, 4-(8-((2-cyclopropyl-5-ethoxy-4′-fluoro-[1,1′-biphenyl]-4-yl)methyl)-2-oxo-1,3,8-triazaspiro[4.5]decan-3-yl)-N-(2-(2-hydroxyethoxy)ethyl)benzenesulfonamide] the figure was not above 100 nM; with `CCOc1cc(C(=O)OC)c(C2CC2)cc1CN1CCC2(CC1)CC(=O)N(c1ccc(C(=O)NCCS(N)(=O)=O)cc1)C2` [Example 50, methyl 2-cyclopropyl-5-ethoxy-4-((3-oxo-2-(4-((2-sulfamoylethyl)carbamoyl)phenyl)-2,8-diazaspiro[4.5]decan-8-yl)methyl)benzoate], 100 to 1000 nM.

As to `CCOc1cc(-c2ccc(F)cc2)c(C2CC2)cc1CN1CCC2(CC1)CN(c1ccc(C(=O)NCCOCCO)cc1)C(=O)N2` [compound 65, 4-(8-((2-cyclopropyl-5-ethoxy-4′-fluoro-[1,1′-biphenyl]-4-yl)methyl)-2-oxo-1,3,8-triazaspiro[4.5]decan-3-yl)-N-(2-(2-hydroxyethoxy)ethyl)benzamide], the half-maximal inhibitory concentration (IC50) was not above 100 nM. Take `CCOc1cc(C(=O)OC)c(C2CC2)cc1CN1CCC2(CC1)CC(=O)N(c1ccc(C(=O)N3CC(CO)(CO)C3)cc1)C2` [Example 42, methyl 4-((2-(4-(3,3-bis(hydroxymethyl)azetidine-1-carbonyl)phenyl)-3-oxo-2,8-diazaspiro[4.5]decan-8-yl)methyl)-2-cyclopropyl-5-ethoxybenzoate]: the IC50 is 1000 to 5000 nM.

On to `CCOc1cc(C(=O)OC)c(C2CC2)cc1CN1CCC2(CC1)CN(c1ccc(C(=O)NCCCNC(N)=O)cc1)C(=O)N2` [Example 77, methyl 2-cyclopropyl-5-ethoxy-4-((2-oxo-3-(4-((3-ureidopropyl)carbamoyl)phenyl)-1,3,8-triazaspiro[4.5]decan-8-yl)methyl)benzoate], for which the half-maximal inhibitory concentration (IC50) is more than 5000 nM. The same measure, in the same setting: as for `CCOc1cc(C(=O)OC)c(C2CC2)cc1CN1CCC2(CC1)CN(c1ccc(C(=O)NCCCNC(N)=O)cc1)C(=O)O2` [Example 57, methyl 2-cyclopropyl-5-ethoxy-4-((2-oxo-3-(4-((3-ureidopropyl)carbamoyl)phenyl)-1-oxa-3,8-diazaspiro [4.5]decan-8-yl)methyl)benzoate], the figure is not above 100 nM; as for `CCOc1cc(C(=O)OC)c(C2CC2)cc1CN1CCC2(CC1)CC(=O)N(c1ccc(C(=O)NCCNC(=O)NC(CO)(CO)CO)cc1)C2` [Example 18, methyl 2-cyclopropyl-4-((2-(4-((2-(3-(1,3-dihydroxy-2-(hydroxymethyl)propan-2-yl)ureido)ethyl)carbamoyl)phenyl)-3-oxo-2,8-diazaspiro[4.5]decan-8-yl)methyl)-5-ethoxybenzoate], 100 to 1000 nM; as for `CCOc1cc(C(=O)OC)c(C2CC2)cc1CN1CCC2(CC1)CC(=O)N(c1ccc(C(=O)NCCC(O)CO)cc1)C2` (centres unmarked) [Example 48, methyl 2-cyclopropyl-4-((2-(4-((3,4-dihydroxybutyl)carbamoyl)phenyl)-3-oxo-2,8-diazaspiro[4.5]decan-8-yl)methyl)-5-ethoxybenzoate], 100 to 1000 nM. `CCOc1cc(C(=O)OC)c(C2CC2)cc1CN1CCC2(CC1)CN(c1ccc(C(=O)NCCCS(=O)(=O)O)cc1)C(=O)O2` [Example 58, 3-(4-(8-(5-cyclopropyl-2-ethoxy-4-(methoxycarbonyl)benzyl)-2-oxo-1-oxa-3,8-diazaspiro[4.5]decan-3-yl)benzamido)propane-1-sulfonic acid] yielded an IC50 not above 100 nM.

Test system in the next series: not listed separately
The series can be described thus: Oral bioavailability of the compounds after oral dosing in rat. The settings on record: in vivo, Sprague Dawley rats, IV 1 mg/kg, PO 5 mg/kg, vehicle 5% DMSO + 30% PEG400 + 65% water. How it is done: Oral bioavailability of the compounds was determined in Sprague Dawley rats (Compound 90) or Wistar Han rats (Compound 81). The table below summarizes the results. Each compound was dosed intravenously (IV) at 1 mg/kg and orally (PO) 5 mg/kg using the respective vehicles listed below. The compounds display low (<10%) oral bioavailability (F%).
Usually bioavailability stands for dose-corrected exposure relative to a reference, in per cent. For `CCOc1cc(-c2ccc(F)cn2)c(C2CC2)cc1CN1CCC2(CC1)CN([C@H]1CC[C@](C)(C(=O)NCCOCCO)CC1)C(=O)O2` [compound 90], the bioavailability stood at 2.6%.

The series is the same for the next values; noted with them: in vivo, Wistar Han rats, IV 1 mg/kg, PO 5 mg/kg, vehicle 5% DMSO + 30% PEG400 + 65% water.
Take `CCOc1cc(-c2ccc(F)cc2)c(C2CC2)cc1CN1CCC2(CC1)CN(c1ccc(S(=O)(=O)NCCOCCO)cc1)C(=O)O2` [Example 81, 4-(8-((2-cyclopropyl-5-ethoxy-4′-fluoro-[1,1-biphenyl]-4-yl)methyl)-2-oxo-1-oxa-3,8-diazaspiro[4.5]decan-3-yl)-N-(2-(2-hydroxyethoxy)ethyl)benzenesulfonamide]: the bioavailability stood at 7%.
